Where two headings read alike, the source gives them in different places.
Key:
RORγ = RORγ (Homo sapiens, UniProt P51449); assay: RORγ Gal4 Reporter Gene Assay; type: cell-based
How it was run: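 Cells at 5×10^5/well were transfected with RORγ fragments fused to the GAL4 DNA-binding domain (CMV promoter), a 5×GAL4-site firefly luciferase reporter and CMV-Renilla luciferase for normalization. About 4 h later serum-free MEM and compound were added (vehicle ≤0.1%). Cultures at 37 °C, 5% CO2; at least triplicates.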

[1] = target: RORγ ligand binding domain (LBD) (Homo sapiens (Human), UniProt P51449); assay: TR-FRET Activity Assay (ligand sensing assay, LANCE); conditions: TR-FRET, interaction of RORγ-LBD with coactivator peptide
RORγ ligand binding domain (LBD), sequence (P51449 269-508): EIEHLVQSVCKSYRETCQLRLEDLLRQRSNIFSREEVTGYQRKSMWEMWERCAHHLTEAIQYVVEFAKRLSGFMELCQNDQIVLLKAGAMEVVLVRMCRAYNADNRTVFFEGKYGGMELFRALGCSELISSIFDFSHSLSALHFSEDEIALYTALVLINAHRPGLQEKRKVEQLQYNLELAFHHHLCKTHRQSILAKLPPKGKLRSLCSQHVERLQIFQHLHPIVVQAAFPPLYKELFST

RORγ, sequence (P51449 whole entry, looked up, the tested form may be a part): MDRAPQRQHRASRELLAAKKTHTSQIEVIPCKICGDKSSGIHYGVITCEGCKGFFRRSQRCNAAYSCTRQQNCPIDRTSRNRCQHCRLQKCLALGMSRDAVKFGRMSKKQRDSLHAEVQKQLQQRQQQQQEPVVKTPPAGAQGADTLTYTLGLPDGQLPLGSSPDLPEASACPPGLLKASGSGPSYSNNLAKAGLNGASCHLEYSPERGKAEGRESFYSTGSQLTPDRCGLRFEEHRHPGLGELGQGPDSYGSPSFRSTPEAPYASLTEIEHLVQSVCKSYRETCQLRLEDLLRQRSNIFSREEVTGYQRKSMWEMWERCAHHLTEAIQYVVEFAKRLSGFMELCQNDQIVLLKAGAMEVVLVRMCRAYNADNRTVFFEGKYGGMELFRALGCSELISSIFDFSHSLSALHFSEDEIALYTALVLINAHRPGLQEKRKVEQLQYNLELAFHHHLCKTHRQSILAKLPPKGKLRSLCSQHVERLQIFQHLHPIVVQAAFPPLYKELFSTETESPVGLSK

Structure (SMILES)	pIC50 (FF) (RORγ)	pIC50 (REN) (RORγ)	pIC50 (FRET) [1]	pIC50 (FF) (RORγ; firefly (FF) luciferase, 293T cells)	pIC50 (REN) (RORγ; renilla normalised (RENnorm) luciferase, 293T cells)
CC(C)(C)c1cc(-c2sc(S(N)(=O)=O)nc2CC2CCCCC2)cc(C2(C)CC2)c1 [Example 13, 5-(3-(tert-Butyl)-5-(1-methylcyclopropyl)phenyl)-4-(cyclohexylmethyl)thiazole-2-sulfonamide]	7.0/6.5/6.7	7.0/6.5/6.7	7.0/6.5/6.7	–	–
CC(C)(C)NS(=O)(=O)c1ccc(-c2sc(C(=O)N3CC4(COC4)C3)nc2CC2CCCCC2)c(Cl)c1Cl [6/33]	6.6/7.9/8.0	6.6/7.9/8.0	6.6/7.9/8.0	–	–
CC(C)(C)c1cc(-c2sc(C(=O)NC3CC(C(=O)O)C3)nc2CC2CCCCC2)nc(C(C)(C)C)n1 (stereo not drawn) [19/13]	–	–	6.5	6.9	6.9
CC(C)(C)NS(=O)(=O)c1ccc(-c2sc(C(=O)NCCC(C)(C)C(=O)O)nc2CC2CCCCC2)c(Cl)c1Cl [6/39]	6.4/8.2/8.2	6.4/8.2/8.2	6.4/8.2/8.2	–	–
CC(C)(O)CNC(=O)c1ncc(CC2CCCCC2)c(-c2cc(C(C)(C)C)cc(C(C)(C)C)c2)n1 [Example 207/1]	6.0/6.2/6.1	6.0/6.2/6.1	6.0/6.2/6.1	–	–

From patent US10301272B2, “Carboxamide or sulfonamide substituted thiazoles and related derivatives as modulators for the orphan nuclear receptor ROR[γ]” (Phenex Pharmaceuticals AG, priority 2012, dated 2019)
